Laboratory results taken from patent US20110281945A1, “GASTRIC ACID SECRETION INHIBITOR, AND POTASSIUM CHANNEL INHIBITOR” (priority 2009, published 2011).

Legend:
Cl^− secretion = assay: Short-circuit current (Isc) measurement with Ussing chambers, large-intestinal (cecum) mucosa specimen; type: cell-based, mouse
Source text: A mouse was killed by cervical vertebra dislocation. After abdominal incision, the cecum was extracted. The boundary parts of the cecum with the small intestine and the large intestine were cut to extract the cecum. The cecum was cut open with scissors into a sheet. In order to completely remove the contents, the cecum was pinched with tweezers and washed with replacement fluid. Replacement fluid was placed in a petri dish covered with rubber, and the cecum was attached thereon with the serosa side up. The muscular layer was separated using tweezers while constantly aerating the replacement fluid in the petri dish with 95% O2/5% CO2 to prepare a specimen composed of the mucosa and the submucosa. This specimen was divided into four pieces for use in the experiment.
The mucosa specimen was placed between two Ussing-type chambers each having a window with an area of 0.2 cm^2 and containing 5 mL of replacement fluid. For the measurement of the electrical potential difference, a pair of calomel electrodes was connected to both chambers through 1 M KCl/2% agar salt bridges. For energization, Ag/AgCl electrodes connected through 1 M NaCl/2% agar salt bridges were installed. These electrodes were connected to a voltage clamp apparatus, and the short-circuit current (Isc) was measured. As for Isc, current flowing from the mucosa side to the serosa side was determined as being positive.
Tetrodotoxin (TTX) was administered to the serosa side to block the nerve, and then forskolin (FK) was administered to the serosa side. […] At least part of this cAMP-dependent increase in Isc is attributable to the activation of a Cl^− secretion mechanism.
Subsequently, the compound 1 was administered to the serosa side to decrease Isc (to suppress Cl^− secretion). […] Lastly, a Na^+.K^−.2Cl cotransporter inhibitor (which inhibits Cl^− secretion) was administered to the serosa side to observe a slight decrease in Isc.

gastric acid secretion = assay: Gastric acid secretion measurement with Ussing chambers, stomach specimen stimulated with histamine; type: cell-based, mouse; conditions: for suppression of the gastric acid secretion rate: versus ground state; for Gastric acid secretion rate: histamine 1 mM on serosa side, 37° C.
Procedure: A mouse was killed by cervical vertebra dislocation. After abdominal incision, the stomach was extracted. The gastric acid secretion portion was cut out, washed with replacement fluid, and divided into two pieces.
The specimen was placed between two chambers facing each other and each having a window with an area of 0.2 cm^2 and containing 10 mL of replacement fluid. Decreases in pH of the replacement fluid in the chamber on the lumen side were successively measured using a pH electrode at 37° C. The gastric acid secretion rate was calculated from the decrease in pH measured after completion of the experiment and the previously measured buffer capacity of the replacement fluid. The experiment was conducted by previously administering histamine (1 mM) to the replacement fluid on the serosa side for stimulating gastric acid secretion.
L-Menthol and compound 1 were administered to the replacement fluid on the lumen side so that the final concentrations were 50 μM and 100 μM, respectively. The administration was performed using stock solutions each having a concentration of 1000 times that of the target final concentration and using DMSO as a solvent. Compound 1 and 1-menthol were administered at 20 minutes and at 14 minutes, respectively, from the start of the experiment.

CCS(=O)(=O)N(C)[C@H]1c2cc(C#N)ccc2OC(C)(C)[C@@H]1O (racemic) [chromanol 293B] was tested, and the Isc-suppressing reaction (Cl^− secretion; chromanol 293B administered first, before compound 1 (Example 2, FIG. 4)) was “can be observed”.

With CC1CCC(C(C)C)C(OCC(C)(O)CO)C1 (stereo not shown) [Compound 1, 2-methyl-3-(menthoxy)propane-1,2-diol] the “change in Isc (Cl^− secretion)” value (Cl^− secretion; administered to serosa side after TTX and forskolin (Example 1, FIG. 3)) was “decrease Isc”, the “suppression of the gastric acid secretion rate” value (gastric acid secretion; 100 μM) was 75% and the “Gastric acid secretion rate” value (gastric acid secretion; Example 4, 100 μM on lumen side) was 0.43 micro Eq/cm^2/h.

CC(C)[C@@H]1CC[C@@H](C)C[C@H]1O [l-Menthol] was tested, and the “decrease in Isc” value (Cl^− secretion; chromanol 293B administered in advance (Examples 2 and 3, FIG. 4 and 5)) was “did not decrease the Isc”, the “suppression of the gastric acid secretion rate” value (gastric acid secretion; 50 μM) was 57% and the “Gastric acid secretion rate” value (gastric acid secretion; Example 5, 50 μM on lumen side) was 0.64 micro Eq/cm^2/h.
